From patent publication US20170266266A1, “Functions of 55 Newfound Proteins and Their Medicinal Application in the Treatment and Prevention of Disease” (priority 2012, published 2017)
Entries after “also recorded” stand apart in the source; their conditions may differ. Where two headings read alike, the source gives them in different places.

System: atherosclerosis in New Zealand white rabbit on high fat diet
Settings: for atherosclerosis Grade: individual animals; for high density lipoprotein cholesterin (HDL-C) Increase / high density lipoprotein cholesterin (HDL-C) Increase (%) / high density lipoprotein cholesterin (HDL-C) Wk 0 / high density lipoprotein cholesterin (HDL-C) Wk 19 / ligh density lipoprotein cholesterin (LDL-C) Increase / ligh density lipoprotein cholesterin (LDL-C) Increase (%) / ligh density lipoprotein cholesterin (LDL-C) Wk0 / ligh density lipoprotein cholesterin (LDL-C) Wk 19 / total cholesterol (TC) Increase / total cholesterol (TC) Increase (%) / total cholesterol (TC) Wk0 / total cholesterol (TC) Wk 19 / total triglyceride (TG) Increase / total triglyceride (TG) Increase (%) / total triglyceride (TG) Wk 0 / total triglyceride (TG) Wk 19: serum
Protocol: New Zealand rabbits were adopted in this animal study and divided into 5 groups. They were high dose, medium dose and low dose of treatment, positive and vehicle control. The treatment groups were given APOAI via auricular vein once a week. […] Positive controls were given Liptor daily by p.o. with a dose of 0.45 mg/kg body weight. […] The study duration was 19 weeks. At the end of study, all animals were sacrificed. […] Lipid content was examined in liver and aorta. And liver index was also determined.
The body weight was between 1.8-2.0 kg. The animals were quarantined for 5-10 days with normal diet before study.
Animals were randomly divided into 5 groups including vehicle control, high dose, medium dose, low dose and positive control group. Ten to 14 rabbits were in one group. Each rabbit was fed with 30 gram of high fat diet followed by 120 gram of normal diet with free access to water.
The frequency of dosing was once a week. Dose was 80, 40, 20 mg/kg body weight respectively. Drug was given by intravenous injection via auricular vein with the volume of 5 mL.
5.1 body weight: body weight of each rabbit was determined once a week.
Resulted blood samples were kept still for 2 hours and then spin with 4,000 rpm for 10 min.
Abdomen cavity was opened. Whole blood was taken from heart. Heart was harvested along with 7 cm of aorta.
The aorta was dissected for 0.5 cm from aortic arch, split longitudinally and then kept in cryo-preservation tube for later lipid analysis. One piece of this sample was fixed in formalin for further pathological analysis.
The weight of liver was determined immediately. Two pieces of specimen were cut from hepatic lobe.
Resulted blood samples were kept still for 2 hours.
The aorta was dissected and opened for 7.5 cm from aortic arch longitudinally. Pictures were taken and atherosclerosis changing was analyzed.

## human Apolipoprotein AI [APOAI]
High dose
  Lipid content in aorta: HDL-C: 0.111 ± 0.057
  Lipid content in aorta: LDL-C: 0.318 ± 0.05
  Lipid content in aorta: TC: 0.29 ± 0.098
  Lipid content in aorta: TG: 0.402 ± 0.101
  Lipid content in liver: HDL-C: 0.825 ± 0.129
  Lipid content in liver: LDL-C: 2.302 ± 0.054
  Lipid content in liver: TC: 2.841 ± 0.298
  Lipid content in liver: TG: 1.3 ± 0.171
  TG content in liver vs vehicle control: significantly lower
Low dose
  Lipid content in aorta: HDL-C: 0.092 ± 0.066
  Lipid content in aorta: LDL-C: 0.254 ± 0.078
  Lipid content in aorta: TC: 0.28 ± 0.047
  Lipid content in aorta: TG: 0.337 ± 0.055
  Lipid content in liver: HDL-C: 0.803 ± 0.236
  Lipid content in liver: LDL-C: 1.857 ± 0.559
  Lipid content in liver: TC: 2.95 ± 0.809
  Lipid content in liver: TG: 1.369 ± 0.251
Middle dose
  Lipid content in aorta: HDL-C: 0.128 ± 0.064
  Lipid content in aorta: LDL-C: 0.307 ± 0.043
  Lipid content in aorta: TC: 0.332 ± 0.135
  Lipid content in aorta: TG: 0.388 ± 0.124
  Lipid content in liver: HDL-C: 0.815 ± 0.249
  Lipid content in liver: LDL-C: 1.407 ± 0.418
  Lipid content in liver: TC: 2.214 ± 0.515
  Lipid content in liver: TG: 1.081 ± 0.31
After 12 weeks of high fat diet, 1 animal
  liver and aorta of sacrificed animal: no abnormal change
All treatment groups
  HDL-C vs vehicle control: significantly high
High dose group
  number of animals of Grade I: Grade I: 0 animal;
  number of animals of Grade II: Grade II: 5 animals;
  number of animals of Grade III: Grade III: 0 animal;
  number of animals of Grade IV: Grade IV: 3 animals.
  atherosclerosis Grade: II (grade II was between 25% to 50%); also recorded: IV (Grade IV was greater than 75%)
Low dose
  TG content in liver vs vehicle control: significantly lower
  liver cellular swelling vs vehicle control: same in low dose group and vehicle control
  liver fat degeneration vs vehicle control: better
  pathological change of aorta vs vehicle control: no significant improvement
Low dose group
  number of animals of Grade I: Grade I: 9 animals;
  number of animals of Grade II: Grade II: 1 animal;
  number of animals of Grade III: Grade III: 0 animal;
  number of animals of Grade IV: Grade IV: 2 animals.
Medium dose
  LDL-C content in liver vs vehicle control: significantly lower
  TC content in liver vs vehicle control: significantly lower
  TG content in liver vs vehicle control: significantly lower
  area of atherosclerosis vs vehicle control: significant less
  liver cellular swelling and fat degeneration vs vehicle control: better
Medium dose group
  number of animals of Grade I: Grade I: 6 animals;
  number of animals of Grade II: Grade II: 2 animals;
  number of animals of Grade III: Grade III: 0 animal;
  number of animals of Grade IV: Grade IV: 0 animal.
  atherosclerosis Grade: I (grade I was less than 25%); also recorded: II (grade II was between 25% to 50%)
Medium dose, endothelium swelling, smooth muscle migrating, foam cell formation
  pathological change of aorta vs vehicle control: better
rabbit, in vivo
  atherosclerosis change in Arteria carotis: no atherosclerosis change found
  calcification, pathological examination: no calcification found
High dose (n = 8)
  high density lipoprotein cholesterin (HDL-C) Increase: 3.81 ± 2.025 mmol/L
  high density lipoprotein cholesterin (HDL-C) Increase (%): 322.1%
  high density lipoprotein cholesterin (HDL-C) Wk 0: 1.183 ± 0.149 mmol/L
  high density lipoprotein cholesterin (HDL-C) Wk 19: 4.993 ± 2.018 mmol/L
  ligh density lipoprotein cholesterin (LDL-C) Increase: 13.18 ± 4.053 mmol/L
  ligh density lipoprotein cholesterin (LDL-C) Increase (%): 1432.6%
  ligh density lipoprotein cholesterin (LDL-C) Wk0: 0.92 ± 0.324 mmol/L
  ligh density lipoprotein cholesterin (LDL-C) Wk 19: 14.1 ± 4.188 mmol/L
  total cholesterol (TC) Increase: 10.90 ± 2.66 mmol/L
  total cholesterol (TC) Increase (%): 685.5%
  total cholesterol (TC) Wk0: 1.59 ± 0.48 mmol/L
  total cholesterol (TC) Wk 19: 12.49 ± 2.81 mmol/L
Low dose (n = 12)
  high density lipoprotein cholesterin (HDL-C) Increase: 3.04 ± 2.019 mmol/L
  high density lipoprotein cholesterin (HDL-C) Increase (%): 431.2%
  high density lipoprotein cholesterin (HDL-C) Wk 0: 0.705 ± 0.246 mmol/L
  high density lipoprotein cholesterin (HDL-C) Wk 19: 3.744 ± 2.14 mmol/L
  ligh density lipoprotein cholesterin (LDL-C) Increase: 6.472 ± 4.468 mmol/L
  ligh density lipoprotein cholesterin (LDL-C) Increase (%): 783.5%
  ligh density lipoprotein cholesterin (LDL-C) Wk0: 0.826 ± 0.279 mmol/L
  ligh density lipoprotein cholesterin (LDL-C) Wk 19: 7.298 ± 4.60 mmol/L
  total cholesterol (TC) Increase: 8.01 ± 4.87 mmol/L
  total cholesterol (TC) Increase (%): 755.6%
  total cholesterol (TC) Wk0: 1.06 ± 0.27 mmol/L
  total cholesterol (TC) Wk 19: 9.07 ± 4.92 mmol/L
  total triglyceride (TG) Increase: 0.482 ± 0.839 mmol/L
  total triglyceride (TG) Increase (%): 61.3%
  total triglyceride (TG) Wk 0: 0.786 ± 0.229 mmol/L
  total triglyceride (TG) Wk 19: 1.267 ± 0.772 mmol/L
Medium dose (n = 9)
  high density lipoprotein cholesterin (HDL-C) Increase: 3.674 ± 2.413 mmol/L
  high density lipoprotein cholesterin (HDL-C) Increase (%): 548.4%
  high density lipoprotein cholesterin (HDL-C) Wk 0: 0.67 ± 0.207 mmol/L
  high density lipoprotein cholesterin (HDL-C) Wk 19: 4.343 ± 2.439 mmol/L
  ligh density lipoprotein cholesterin (LDL-C) Increase: 5.297 ± 4.373 mmol/L
  ligh density lipoprotein cholesterin (LDL-C) Increase (%): 499.7%
  ligh density lipoprotein cholesterin (LDL-C) Wk0: 1.06 ± 0.298 mmol/L
  ligh density lipoprotein cholesterin (LDL-C) Wk 19: 6.357 ± 4.475 mmol/L
  total cholesterol (TC) Increase: 8.505 ± 5.37 mmol/L
  total cholesterol (TC) Increase (%): 453.0%
  total cholesterol (TC) Wk0: 1.77 ± 0.783 mmol/L
  total cholesterol (TC) Wk 19: 10.28 ± 5.82 mmol/L
  total triglyceride (TG) Increase: 1.488 ± 0.988 mmol/L
  total triglyceride (TG) Increase (%): 226.8%
  total triglyceride (TG) Wk 0: 0.656 ± 0.191 mmol/L
  total triglyceride (TG) Wk 19: 2.144 ± 1.043 mmol/L
Test article given along with high fat diet
  blood lipid parameters: no significant decrease in blood lipid parameters
Treatment group vs vehicle
  liver index: lower in treatment group, but there's no statistical difference found
Treatment groups
  lipid content in aorta vs vehicle control: lower in treatment groups than that in vehicle control but there was no statistical significance
